One test addresses DNA topoisomerase (Yersinia pestis, UniProt A0A2S9PM60). Put plainly: Yersinia topoisomerase I cleavage product accumulation – biochemical, cherry-pick, dose response (AID 588525).
In the next test the target is Beta-galactosidase (Escherichia coli, UniProt Q8VNN2). The experiment in a line: PubChem AID 485352. It is filed as functional.
In test [1] the target is T1, Type-1 angiotensin II receptor (Homo sapiens, UniProt P30556).
T1 sequence (P30556 whole entry): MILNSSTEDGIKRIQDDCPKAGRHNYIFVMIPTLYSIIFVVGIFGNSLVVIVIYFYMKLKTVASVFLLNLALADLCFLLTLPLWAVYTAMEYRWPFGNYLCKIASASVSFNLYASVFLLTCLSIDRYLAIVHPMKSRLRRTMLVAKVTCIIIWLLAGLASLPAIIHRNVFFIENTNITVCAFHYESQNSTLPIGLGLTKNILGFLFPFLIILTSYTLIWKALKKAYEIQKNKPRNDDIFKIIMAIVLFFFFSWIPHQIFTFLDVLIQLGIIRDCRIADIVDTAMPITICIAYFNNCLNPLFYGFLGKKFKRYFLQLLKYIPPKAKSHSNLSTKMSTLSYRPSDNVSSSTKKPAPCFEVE
Put plainly: antagonism of angiotensin II type 1 receptor – cell-based, uHTS hits, selectivity assay for APJ receptor antagonist project, dose response (AID 463214).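 Further: antagonist potency against angiotensin II stimulated AT1 response.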 It is filed as functional.

In test [2] the target is T2, Nuclear receptor subfamily 0 group B member 1 (Homo sapiens, UniProt P51843).
T2 sequence (P51843 whole entry): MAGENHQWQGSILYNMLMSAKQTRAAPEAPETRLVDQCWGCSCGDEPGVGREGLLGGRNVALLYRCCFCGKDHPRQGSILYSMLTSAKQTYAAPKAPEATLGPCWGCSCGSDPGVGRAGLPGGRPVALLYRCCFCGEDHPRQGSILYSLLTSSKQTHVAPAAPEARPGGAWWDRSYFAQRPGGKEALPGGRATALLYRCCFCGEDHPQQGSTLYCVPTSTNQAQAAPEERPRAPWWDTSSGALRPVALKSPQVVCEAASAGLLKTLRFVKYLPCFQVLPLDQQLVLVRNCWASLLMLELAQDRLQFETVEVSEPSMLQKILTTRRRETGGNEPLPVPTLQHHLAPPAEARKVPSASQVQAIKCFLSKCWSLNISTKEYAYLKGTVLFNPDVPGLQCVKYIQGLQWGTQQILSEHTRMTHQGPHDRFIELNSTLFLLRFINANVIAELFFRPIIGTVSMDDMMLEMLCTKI
Put plainly: Luminescence-based cell-based high throughput dose response assay for inhibitors of the orphan nuclear receptor subfamily 0, group B, member 1 (DAX1; NR0B1). [Related pubchem assays (depositor defined):AID504766, AID504790]. The test is classed as functional.

The nature of test [3]: blockers of bursicon-stimulated LGR2 cAMP reporter – cell-based, HEK293, CRE-luciferase reporter, cherry pick, set 2, dose response (AID 743343).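 Further: transfected cells were stimulated with diluted bursicon conditioned medium after compound addition.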 It is filed as functional.
Test [4] in a line: toxicity toward HepG2 liver cells – cell-based, plate reader, cherry-pick, antagonist series, cytotoxicity control, dose response (AID 743416). It is filed as functional.
The nature of test [5]: blockade of melanocortin 4 receptor signaling – cell-based, plate reader, cherry pick, counter-screen for LGR2 antagonist project, dose response (AID 743444).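 Further: transfected HEK 293 cells stimulated with alpha-MSH peptide; potency of inhibitors of the alpha-MSH evoked signal.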 The test is classed as functional. A general note: A counterscreen serves to expose hits that act by an unwanted route or on another target.
Test [6] deals with HEK293. The experiment in a line: cells. The test is classed as functional, cell-based. The conditions noted are these: Homo sapiens.
Test [7] addresses Beta-2 adrenergic receptor (Homo sapiens, UniProt P07550). The experiment in a line: ADRB2 activation measured by internalization – cell-based, FAP fluorogen, flow cytometry, cherry pick 1, dose response (AID 588763). The test is classed as functional.
The next test concerns the target Nonstructural protein 1 (Influenza A virus, UniProt Q194T2). It is filed as functional, Influenza A virus (A/California/07/2009(H1N1)).
Test [8] is described as follows: Counterscreen for AddAB inhibitors: absorbance-based bacterial cell-based high throughput dose response assay for inhibitors of bacterial viability. [Related pubchem assays (depositor defined):AID435030, AID449728, AID449731, AID488942, AID488955, AID488956]. It is filed as functional.
Test [9] in a line: NIH-3T3 fibroblast cytotoxicity, dose response, cytotoxicity control, cell-based, fluorescence, Alamar Blue, secondary assay (AID 2327).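 Further: NIH-3T3 mouse fibroblasts cultured with fluconazole at 8 µg/mL.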 The test is classed as functional. On the technique in general: Alamar Blue is a resazurin reagent that responds to reducing activity.
Test [10] is described as follows: cells. It is filed as functional, cell-based.
The nature of test [11]: NIH3T3 cell viability loss – ATP luminescence, mouse fibroblasts, counter-screen, dose response (AID 2010).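 Further: cells exposed to compound for about 90 hours before reading.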 It is filed as functional, cell-based.
Test [12] relates to Jurkat. The experiment in a line: SAR Analysis of small molecule inhibitors of T-cell specific antigen receptor-induced NF-kB activation in a Jurkat cell line using a luminescence assay - Set 2. [Related pubchem assays (depositor defined):AID435003, AID435012, AID465]. It is filed as functional, cell-based. The following applies: Homo sapiens.
A further test concerns the target Exodeoxyribonuclease V (Escherichia coli (strain K12), UniProt P04993+P07648+P08394). The experiment in a line: RecBCD inhibition via phage-restricted bacterial growth – absorbance, V66 E. coli, mutant T4 phage, counter-screen for AddAB inhibitor project, dose response (AID 492957). The test is classed as functional, cell-based, Escherichia coli str. K-12 substr. MG1655.

Test [13] in a line: fluconazole-exposed Candida albicans growth modulators – fluorescence, retest, confirmation (AID 2467). The test is classed as functional, cell-based.
Test [14] addresses ATP-dependent molecular chaperone HSP82 (Candida albicans (strain WO-1) (Yeast), UniProt C4YTQ8). Put plainly: steroid-induced GRE reporter decrease in yeast – S. cerevisiae, luminescence, Hsp90 inhibitor project, dose response (AID 2400).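 Further: beta-galactosidase luminescence from glucocorticoid response element reporter as proxy for Hsp90 function; inhibitor potency where signal loss means Hsp90 inhibition.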 The test is classed as functional, cell-based.
Test [15] concerns the target T3, Serine/threonine-protein phosphatase (Candida dubliniensis (strain CD36 / CBS 7987 / NCPF 3949 / NRRLY-17841) (Yeast), UniProt B9W6M3).
T3 sequence (B9W6M3 whole entry): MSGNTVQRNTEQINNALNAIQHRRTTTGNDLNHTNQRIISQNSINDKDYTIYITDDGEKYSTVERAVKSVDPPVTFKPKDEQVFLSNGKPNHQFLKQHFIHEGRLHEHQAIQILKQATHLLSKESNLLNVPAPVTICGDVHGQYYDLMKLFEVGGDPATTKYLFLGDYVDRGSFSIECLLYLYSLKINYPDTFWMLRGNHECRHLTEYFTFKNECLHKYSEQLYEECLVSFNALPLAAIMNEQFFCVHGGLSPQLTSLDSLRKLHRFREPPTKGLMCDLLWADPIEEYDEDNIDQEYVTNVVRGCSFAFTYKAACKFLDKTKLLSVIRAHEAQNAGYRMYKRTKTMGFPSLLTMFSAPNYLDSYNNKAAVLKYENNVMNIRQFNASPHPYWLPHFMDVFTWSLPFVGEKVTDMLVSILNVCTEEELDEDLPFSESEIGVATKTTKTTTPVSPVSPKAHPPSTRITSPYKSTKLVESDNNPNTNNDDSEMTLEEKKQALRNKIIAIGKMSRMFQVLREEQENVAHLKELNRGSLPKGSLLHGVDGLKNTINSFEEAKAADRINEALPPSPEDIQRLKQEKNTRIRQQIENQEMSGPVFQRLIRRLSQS
The experiment in a line: blockers of CaCl2-induced CDRE-lacZ signaling – S. cerevisiae, luminescence, secondary, dose response (AID 2388).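 Further: yeast reporter cells carrying a calcineurin-responsive lacZ construct stimulated with calcium chloride; luminescent beta-galactosidase reporter signal in whole cells rather than isolated phosphatase activity; potency for inhibition where a drop in reporter signal means calcineurin blockade.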 The test is classed as functional, cell-based.

A further test has as its system INS1. Put plainly: INS-1E survival protection against cytokine death – cell-based, luminescence, retest, dose response (AID 449756).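 Further: cell death triggered by IL-1 beta plus TNF-alpha plus IFN-gamma mixture; protective hits raise ATP signal compared with cytokine alone wells.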 The test is classed as functional. The conditions noted are these: Rattus norvegicus.
The nature of test [16]: Trypanosoma cruzi growth suppression in host cells – NIH3T3 host cells, beta-gal luminescence, confirmation (AID 2044).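 Further: intracellular parasites grown in NIH/3T3 mouse fibroblasts as host cells; luminescent beta-galactosidase reporter signal from transgenic T. cruzi replicating inside host cells; inhibitors lower the luminescence signal.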 It is filed as functional, cell-based.
The nature of test [17]: loss of viability in HepG2 cells – cell-based, CellTiter-Glo, cherry-picked, cytotoxicity control for Shn3 inhibitor project, dose response (AID 624134). It is filed as functional. Background: In ATP-based viability assays light output follows the ATP content of the culture.
Test [18] has as its system Jurkat. The experiment in a line: SAR Analysis of small molecule inhibitors of T-cell specific antigen receptor-induced NF-kB activation in a Jurkat cell line using a luminescence assay. [Related pubchem assays (depositor defined):AID435003, AID435012, AID465]. The test is classed as functional, cell-based. The following applies: Homo sapiens.
Test [19] relates to HEK293. The experiment in a line: SAR Analysis of small molecule inhibitors of T-cell specific antigen receptor-induced NF-kB activation in a HEK-293T cell line using a luminescence assay. [Related pubchem assays (depositor defined):AID435003, AID435012, AID489026]. It is filed as functional, cell-based. The following applies: Homo sapiens.
In test [20] the target is Heat shock protein HSP 90-alpha (Homo sapiens, UniProt P07900). It is filed as functional, organism-based.
A short description of test [21]: cells. It is filed as functional, cell-based. This is another data set of the same source.
In test [22] the test system is HEK293. The experiment in a line: SAR Analysis of small molecule inhibitors of T-cell specific antigen receptor-induced NF-kB activation in a HEK-293T cell line using a luminescence assay - Set 2. [Related pubchem assays (depositor defined):AID435003, AID435012, AID489026]. The following applies: Homo sapiens. It is filed as functional, cell-based.
Test [23] can be described thus: non-specific 3'UTR reporter inhibition in Clone20-Shn3RL – cell-based, Renilla luciferase, cherry-picked, counter-screen for Shn3 inhibitor project, dose response (AID 624133). The test is classed as functional.
Test [24] can be described thus: reduction of Shn3 3'UTR-driven luciferase in osteoblasts – cell-based, Clone20 osteoblasts, firefly luciferase, cherry-picked, dose response (AID 624132).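 Further: firefly luciferase luminescence from reporter carrying the Shn3 3'UTR in osteoblasts.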 The test is classed as functional.
The test system of test [25] is HEK293. Put plainly: HEK293T cell viability loss, resazurin readout – resazurin fluorescence, cytotoxicity control for NF-kB activator project, SAR follow-up (AID 493251). It is filed as functional, cell-based.
Test [26] deals with Beta-adrenergic receptor kinase 1 (Homo sapiens, UniProt P25098). Put plainly: aptamer displacement from bead-bound GRK2 – biochemical, cherry pick 1, bead flow cytometry, dose response (AID 504500).
Sequence of Beta-adrenergic receptor kinase 1 (P25098 whole entry): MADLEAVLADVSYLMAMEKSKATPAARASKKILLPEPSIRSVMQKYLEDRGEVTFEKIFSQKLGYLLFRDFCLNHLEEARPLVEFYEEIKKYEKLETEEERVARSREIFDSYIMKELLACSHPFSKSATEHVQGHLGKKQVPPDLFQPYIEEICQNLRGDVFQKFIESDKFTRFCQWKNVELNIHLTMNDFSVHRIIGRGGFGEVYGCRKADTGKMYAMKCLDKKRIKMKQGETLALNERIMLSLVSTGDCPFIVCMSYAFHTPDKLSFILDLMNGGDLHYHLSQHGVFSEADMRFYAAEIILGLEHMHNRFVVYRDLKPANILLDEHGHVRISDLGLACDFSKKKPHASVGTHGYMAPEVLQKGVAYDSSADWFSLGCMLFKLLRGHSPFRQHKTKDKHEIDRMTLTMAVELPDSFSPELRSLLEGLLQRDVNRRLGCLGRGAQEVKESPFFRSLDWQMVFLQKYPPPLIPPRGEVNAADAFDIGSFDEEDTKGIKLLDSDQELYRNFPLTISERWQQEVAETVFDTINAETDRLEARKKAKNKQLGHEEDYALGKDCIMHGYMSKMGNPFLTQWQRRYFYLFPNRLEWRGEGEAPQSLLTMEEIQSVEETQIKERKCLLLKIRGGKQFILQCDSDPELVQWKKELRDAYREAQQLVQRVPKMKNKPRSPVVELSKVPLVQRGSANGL

Active and inactive are the calls of the source. Where only a bound is given, the exact number is not on record here.

Drawing on ChEMBL document CHEMBL1201862, “PubChem BioAssay data set” (2004), this text covers AC50, EC50 and IC50 for five molecules.

What is called AC50 is the concentration giving half of the maximal activity seen. The term EC50 denotes the midpoint of the concentration-response curve. What is called IC50 is the concentration that gives 50% inhibition.

Sequence of ATP-dependent molecular chaperone HSP82 (C4YTQ8 whole entry): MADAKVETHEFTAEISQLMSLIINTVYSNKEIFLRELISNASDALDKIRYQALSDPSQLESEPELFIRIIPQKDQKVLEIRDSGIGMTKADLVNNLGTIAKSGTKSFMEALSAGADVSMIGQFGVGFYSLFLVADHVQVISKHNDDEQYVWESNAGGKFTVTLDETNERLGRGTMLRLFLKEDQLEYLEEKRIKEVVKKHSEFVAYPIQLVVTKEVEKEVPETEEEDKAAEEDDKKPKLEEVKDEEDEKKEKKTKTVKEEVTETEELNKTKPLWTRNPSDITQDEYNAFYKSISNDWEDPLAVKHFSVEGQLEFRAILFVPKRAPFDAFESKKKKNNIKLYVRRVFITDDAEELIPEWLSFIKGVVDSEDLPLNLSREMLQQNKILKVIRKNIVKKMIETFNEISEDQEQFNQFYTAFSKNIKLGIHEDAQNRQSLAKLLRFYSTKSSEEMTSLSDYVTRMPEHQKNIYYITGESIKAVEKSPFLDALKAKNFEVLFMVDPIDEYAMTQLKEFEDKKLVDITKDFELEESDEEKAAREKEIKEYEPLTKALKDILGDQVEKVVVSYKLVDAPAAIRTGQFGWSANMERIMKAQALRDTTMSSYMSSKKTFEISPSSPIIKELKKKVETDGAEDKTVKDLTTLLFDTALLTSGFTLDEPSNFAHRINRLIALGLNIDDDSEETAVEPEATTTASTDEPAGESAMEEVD
Sequence of Beta-2 adrenergic receptor (P07550 whole entry): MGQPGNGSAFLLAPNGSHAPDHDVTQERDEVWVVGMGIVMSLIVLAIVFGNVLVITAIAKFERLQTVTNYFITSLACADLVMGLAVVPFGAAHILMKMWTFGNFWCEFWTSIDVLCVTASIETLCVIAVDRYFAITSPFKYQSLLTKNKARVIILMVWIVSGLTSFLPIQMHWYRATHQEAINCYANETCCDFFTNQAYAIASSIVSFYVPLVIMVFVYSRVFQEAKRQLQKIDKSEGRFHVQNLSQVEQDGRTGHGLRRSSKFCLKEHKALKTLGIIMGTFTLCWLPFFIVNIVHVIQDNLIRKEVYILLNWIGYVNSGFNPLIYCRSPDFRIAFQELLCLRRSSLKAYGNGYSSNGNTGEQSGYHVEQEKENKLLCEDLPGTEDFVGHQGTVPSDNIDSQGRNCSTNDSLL
Sequence of Exodeoxyribonuclease V (P04993 whole entry): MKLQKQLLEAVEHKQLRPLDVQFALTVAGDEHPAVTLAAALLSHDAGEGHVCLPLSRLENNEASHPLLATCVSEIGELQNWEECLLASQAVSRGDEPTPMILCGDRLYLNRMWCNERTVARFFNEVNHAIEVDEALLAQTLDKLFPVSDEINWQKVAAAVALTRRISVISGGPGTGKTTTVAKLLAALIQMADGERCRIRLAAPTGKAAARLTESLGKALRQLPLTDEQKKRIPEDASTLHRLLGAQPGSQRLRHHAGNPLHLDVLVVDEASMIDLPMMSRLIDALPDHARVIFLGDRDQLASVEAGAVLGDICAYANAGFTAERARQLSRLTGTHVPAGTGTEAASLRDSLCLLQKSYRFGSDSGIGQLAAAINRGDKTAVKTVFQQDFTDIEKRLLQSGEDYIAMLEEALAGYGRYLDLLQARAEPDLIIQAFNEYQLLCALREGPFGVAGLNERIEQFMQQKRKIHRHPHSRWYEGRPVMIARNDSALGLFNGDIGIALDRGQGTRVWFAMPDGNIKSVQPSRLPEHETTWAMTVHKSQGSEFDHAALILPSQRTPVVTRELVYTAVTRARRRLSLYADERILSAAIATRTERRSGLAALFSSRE
Sequence of Exodeoxyribonuclease V (P07648 whole entry): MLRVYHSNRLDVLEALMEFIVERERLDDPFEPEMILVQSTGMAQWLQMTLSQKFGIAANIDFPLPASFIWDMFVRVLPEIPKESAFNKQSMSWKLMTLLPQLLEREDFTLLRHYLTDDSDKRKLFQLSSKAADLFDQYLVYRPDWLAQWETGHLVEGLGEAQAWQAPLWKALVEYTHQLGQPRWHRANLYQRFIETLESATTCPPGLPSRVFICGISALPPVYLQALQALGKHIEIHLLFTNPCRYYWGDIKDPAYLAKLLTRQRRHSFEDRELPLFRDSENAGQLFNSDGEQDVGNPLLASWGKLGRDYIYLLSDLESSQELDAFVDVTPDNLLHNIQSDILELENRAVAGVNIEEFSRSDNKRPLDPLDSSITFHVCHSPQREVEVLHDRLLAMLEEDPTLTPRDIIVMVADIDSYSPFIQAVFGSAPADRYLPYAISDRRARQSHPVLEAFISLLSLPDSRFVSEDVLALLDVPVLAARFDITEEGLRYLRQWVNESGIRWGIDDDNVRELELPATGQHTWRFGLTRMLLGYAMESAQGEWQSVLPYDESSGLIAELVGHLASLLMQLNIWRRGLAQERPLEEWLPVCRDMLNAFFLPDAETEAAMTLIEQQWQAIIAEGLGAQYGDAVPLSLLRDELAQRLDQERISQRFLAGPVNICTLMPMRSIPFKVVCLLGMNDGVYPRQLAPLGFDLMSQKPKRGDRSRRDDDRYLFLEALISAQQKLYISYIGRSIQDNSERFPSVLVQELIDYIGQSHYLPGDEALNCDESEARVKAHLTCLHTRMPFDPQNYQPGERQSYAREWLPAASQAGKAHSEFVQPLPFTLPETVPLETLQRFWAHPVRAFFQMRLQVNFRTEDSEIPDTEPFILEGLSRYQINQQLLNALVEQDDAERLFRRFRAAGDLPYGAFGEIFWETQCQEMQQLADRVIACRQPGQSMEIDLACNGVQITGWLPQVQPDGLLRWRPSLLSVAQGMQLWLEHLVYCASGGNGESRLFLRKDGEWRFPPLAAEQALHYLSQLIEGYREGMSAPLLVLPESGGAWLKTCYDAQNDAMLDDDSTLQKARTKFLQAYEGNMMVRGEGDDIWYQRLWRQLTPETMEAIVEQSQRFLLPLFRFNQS
Sequence of Exodeoxyribonuclease V (P08394 whole entry): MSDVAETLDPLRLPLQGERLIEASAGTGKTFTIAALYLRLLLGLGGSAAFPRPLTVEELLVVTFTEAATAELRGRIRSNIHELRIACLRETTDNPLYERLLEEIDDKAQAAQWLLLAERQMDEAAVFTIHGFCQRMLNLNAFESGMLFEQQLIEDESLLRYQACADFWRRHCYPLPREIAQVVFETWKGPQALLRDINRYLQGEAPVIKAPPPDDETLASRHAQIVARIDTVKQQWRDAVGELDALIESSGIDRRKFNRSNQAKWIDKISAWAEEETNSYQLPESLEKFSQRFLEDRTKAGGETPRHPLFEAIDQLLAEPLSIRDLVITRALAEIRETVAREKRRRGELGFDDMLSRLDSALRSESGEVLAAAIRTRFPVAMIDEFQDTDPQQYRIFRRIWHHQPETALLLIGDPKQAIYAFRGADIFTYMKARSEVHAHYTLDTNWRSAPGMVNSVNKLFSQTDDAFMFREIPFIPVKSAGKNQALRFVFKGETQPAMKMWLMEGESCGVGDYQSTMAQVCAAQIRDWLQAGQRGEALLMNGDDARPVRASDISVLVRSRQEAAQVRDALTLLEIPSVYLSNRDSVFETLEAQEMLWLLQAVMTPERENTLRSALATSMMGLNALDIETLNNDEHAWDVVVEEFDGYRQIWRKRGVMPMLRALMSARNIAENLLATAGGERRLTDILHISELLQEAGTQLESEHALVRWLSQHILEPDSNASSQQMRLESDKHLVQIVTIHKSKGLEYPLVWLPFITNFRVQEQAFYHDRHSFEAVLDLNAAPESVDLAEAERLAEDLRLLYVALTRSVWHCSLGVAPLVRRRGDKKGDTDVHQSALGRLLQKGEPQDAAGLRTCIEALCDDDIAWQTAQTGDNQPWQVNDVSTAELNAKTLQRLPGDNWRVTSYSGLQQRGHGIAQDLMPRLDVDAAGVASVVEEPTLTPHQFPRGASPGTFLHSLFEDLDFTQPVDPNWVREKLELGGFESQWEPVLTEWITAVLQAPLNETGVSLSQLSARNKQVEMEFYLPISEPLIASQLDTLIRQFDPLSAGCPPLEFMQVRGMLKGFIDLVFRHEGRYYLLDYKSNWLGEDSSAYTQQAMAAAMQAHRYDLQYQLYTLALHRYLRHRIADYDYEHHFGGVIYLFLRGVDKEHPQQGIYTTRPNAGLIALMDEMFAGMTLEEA
Sequence of Nonstructural protein 1 (Q194T2 whole entry): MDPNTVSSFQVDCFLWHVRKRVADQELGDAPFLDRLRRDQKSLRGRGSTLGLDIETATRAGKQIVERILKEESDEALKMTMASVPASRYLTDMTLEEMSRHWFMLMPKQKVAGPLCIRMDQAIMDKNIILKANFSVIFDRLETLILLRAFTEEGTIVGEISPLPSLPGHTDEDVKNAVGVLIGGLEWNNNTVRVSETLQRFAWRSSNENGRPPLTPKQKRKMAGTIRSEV

On to `NC(=O)c1ccccc1NCC(=O)c1ccc(Cl)cc1`, for which, on DNA topoisomerase, the AC50 was 7.76 µM (active). Also, the EC50 on Beta-galactosidase was > 40 µM (inactive). Moreover, the IC50 in [1] is 7.41 µM (active).

Regarding `Cc1ccc(-c2cnn3c(N4CCOCC4)cc(C)nc23)cc1`, the IC50 (in test [2]; in the test on HEK293 [6]) was > 67.5 µM (inactive) each time. The AC50 in test [3] is 17.4 µM (active); in test [4], > 52 µM (inactive); in test [5], 23.6 µM (active).

For the molecule `CC(=O)N1c2ccccc2C(C)(c2ccccc2)CC1(C)C` (configuration not stated), the EC50 in test [7] was 9.29 µM (active).

With `CCCC(=O)NC(c1ccccc1)c1ccc2cccnc2c1O` (configuration not stated), the IC50 at Nonstructural protein 1 was 21.5 µM (active); in test [8], > 119 µM (inactive); in the test on Jurkat [12], 6.27 µM (active); on Exodeoxyribonuclease V, > 119 µM (inactive); with Jurkat [18] it was 3.81 µM (active); with HEK293 [19], 7.31 µM (active). Moreover, the IC50 in the test on HEK293 [22] was 10.5 µM (active); in the test on HEK293 [25] (Homo sapiens, HEK293) it was 13.6 µM (active); in the test with HEK293 [25] (hek293), 8.74 µM (active). Besides, the EC50 was 16.6 µM (inconclusive) in test [9]; 6.78 µM (active) in the test “cells [10]”; 1.01 µM (active) in test [11]; 463 nM (active) in test [13]; > 160 µM (inactive) in [14]; > 180 µM (inactive) in [15]. Moreover, the EC50 in [16] was 565 nM (active); in “cells [21]” it was > 350 µM (not active). For the same molecule, the AC50 is 664 nM (active) in the test with INS1; 2.88 µM (active) in test [17]; 4.65 µM (active) in [20]; 1.89 µM (active) in test [23]; 1.99 µM (active) in test [24].

Turning to `CCCCCC(=O)Nc1cccc(C2=NOC3(C2)C[C@@H](C(N)=O)N(C(=O)c2ccc(OC)cc2)C3)c1` (some centres not stated), in test [26], the EC50 is 4.38 µM (active).
